Where a name gives a salt, the structure may show the parent alone.
Legend:
[1] = cited from earlier work
CES2 = target: T1, CES2 (Homo sapiens, UniProt O00748); conditions: higher affinity than CES1; cited from earlier work
T1 sequence (O00748 27-559): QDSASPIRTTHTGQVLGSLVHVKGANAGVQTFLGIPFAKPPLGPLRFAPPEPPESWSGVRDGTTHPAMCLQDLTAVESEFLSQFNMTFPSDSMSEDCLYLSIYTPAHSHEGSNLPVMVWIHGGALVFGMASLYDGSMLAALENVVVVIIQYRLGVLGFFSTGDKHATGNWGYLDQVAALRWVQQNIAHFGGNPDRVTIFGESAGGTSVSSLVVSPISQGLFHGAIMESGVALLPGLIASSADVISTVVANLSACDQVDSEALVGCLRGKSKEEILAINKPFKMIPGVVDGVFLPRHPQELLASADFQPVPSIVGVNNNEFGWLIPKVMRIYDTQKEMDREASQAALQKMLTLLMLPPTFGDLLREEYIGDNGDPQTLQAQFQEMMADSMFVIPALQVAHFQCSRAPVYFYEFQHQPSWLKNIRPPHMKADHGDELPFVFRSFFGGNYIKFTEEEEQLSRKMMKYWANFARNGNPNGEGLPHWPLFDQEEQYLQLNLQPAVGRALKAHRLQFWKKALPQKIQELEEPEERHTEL

[2] = target: butyrylcholinesterase (hBChE) (Homo sapiens, UniProt P06276); conditions: higher activity than CES; cited from earlier work
butyrylcholinesterase (hBChE), sequence (P06276 29-602): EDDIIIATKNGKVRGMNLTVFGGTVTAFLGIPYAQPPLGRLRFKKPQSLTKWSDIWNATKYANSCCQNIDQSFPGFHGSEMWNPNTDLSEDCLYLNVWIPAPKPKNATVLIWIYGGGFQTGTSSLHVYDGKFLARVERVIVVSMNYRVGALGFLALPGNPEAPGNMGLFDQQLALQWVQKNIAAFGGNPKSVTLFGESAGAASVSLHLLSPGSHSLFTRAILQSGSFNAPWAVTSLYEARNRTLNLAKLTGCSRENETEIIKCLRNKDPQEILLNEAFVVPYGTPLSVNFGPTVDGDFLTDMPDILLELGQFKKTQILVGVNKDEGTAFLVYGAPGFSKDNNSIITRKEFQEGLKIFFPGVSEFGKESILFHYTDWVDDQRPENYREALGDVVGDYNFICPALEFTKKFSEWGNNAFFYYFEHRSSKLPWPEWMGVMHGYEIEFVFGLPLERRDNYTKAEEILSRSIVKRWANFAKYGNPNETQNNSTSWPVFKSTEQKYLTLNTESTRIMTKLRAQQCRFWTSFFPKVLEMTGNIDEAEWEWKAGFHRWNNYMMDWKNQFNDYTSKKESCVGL

Panc 02.03 cells = test: Panc 02.03 pancreatic cancer xenograft, average tumor volumes in nude/nude mice; format: in vivo; conditions: single agent, 30 mg/kg i.p. BID 2x/week; day 22
Experimental: Immunocompromised nude/nude mice are inoculated in the right hind flank with cells harboring a KRas G12D mutation. […] The first group is administered vehicle only. […] Tumor volumes are measured using a caliper every two-three days and tumor volumes are calculated by the formula: […].

For `CCc1c2c(nc3ccc(O)cc13)-c1cc3c(c(=O)n1C2)COC(=O)[C@]3(O)CC` [SN-38, ethyl-10-hydroxy-camptothecin], the “time to peak plasma concentration” value ([1]; after infusion) is listed as no more than 2 h and the distribution half-life ([1]; in vivo) is listed as “approximately 8 min”.
In the case of `CCc1c2c(nc3ccc(OC(=O)N4CCC(N5CCCCC5)CC4)cc13)-c1cc3c(c(=O)n1C2)COC(=O)[C@]3(O)CC` [Irinotecan, (S)-4,11-diethyl-3,4,12,14-tetrahydro-4-hydroxy-3,14-dioxo-1H-pyrano[3′,4′:6,7]indolizino[1,2-β]quinolin-9-yl ester[1,4′-bipiperidine]-1′-carboxylic acid trihydrate monohydrochloride], the “affinity for irinotecan, CES2 relative to CES1” value (CES2) is given as 12.5 fold, the “activity for irinotecan, butyrylcholinesterase relative to CES” value [2] is given as 6 fold and the “fraction of pro-drug hydrolyzed into active metabolite SN-38” value ([1]; in vivo) is given as 2-5%.
In the case of `C#Cc1c(F)ccc2cc(O)cc(-c3ncc4c(N5C[C@H]6CC[C@@H](C5)N6)nc(OC[C@@]56CCCN5C[C@H](F)C6)nc4c3F)c12` [MRTX1133, 4-(4-((1R,5S)-3,8-diazabicyclo[3.2.1]octan-3-yl)-8-fluoro-2-(((2R,7aS)-2-fluorohexahydro-1Hpyrrolizin-7a-yl)methoxy)pyrido[4,3-d]pyrimidin-7-yl)-5-ethynyl-6-fluoronaphthalen-2-ol], the tumor growth (Panc 02.03 cells) is reported as 72%.

Reference: patent US20250249003A1, “COMBINATIONS OF KRAS G12D INHIBITORS WITH IRINOTECAN AND RELATED METHODS OF TREATMENT” (MIRATI THERAPEUTICS, INC., priority 2021, published 2025)
